These results are taken from ChEMBL document CHEMBL1201862, “PubChem BioAssay data set” (2004).

SMILES strings stand for the structures.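 Compound exposure: 48 hours, 5 concentrations, 96-well plates. GI50 is the concentration that inhibits growth by half.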 The source made the active and inactive calls. Rule as the data show it: active = GI50 up to about 1.1 µM and inactive = higher. Where only a bound is given, the exact number is not on record here.

Test systems include A498; CCRF-CEM; COLO 205; HCT-15; HOP-92; HT-29; K562; KM12; LOX IMVI; M14; NCI-H226; RXF 393; SF-268; SK-MEL-28; SK-OV-3; SN12C; SNB-19; SR.
What all share (test): NCI tumour cell line growth inhibition, 48 h

For the compound `CC(c1ccccc1)C(O)S(=O)(=O)O` (stereo not given), the GI50 is > 100 µM (inactive) in the assay with A498; > 100 µM (inactive) with CCRF-CEM; > 100 µM (inactive) in the assay on COLO 205; over 100 µM with HCT-15; > 100 µM (inactive) in the assay with HOP-92; > 100 µM (inactive) with HT-29. The GI50 with K562 is > 10 µM (inactive); in the assay with KM12, > 100 µM (inactive); with LOX IMVI, 36.8 µM (inactive); in the assay with M14, > 100 µM (inactive); in the assay on NCI-H226 it was > 100 µM (inactive); in the assay on RXF 393, > 100 µM (inactive). Also, the GI50 in the assay with SF-268, in the assay with SK-MEL-28, with SK-OV-3, in the assay with SN12C and with SNB-19 was > 100 µM (inactive) throughout.

Consider `N#Cc1cccc(NC(=O)c2ccc(C(=O)O)c(C(=O)c3ccc(C(=O)O)c(C(=O)Nc4cccc(C#N)c4)c3)c2)c1`, for which the GI50 is > 100 µM (inactive) in the assay with A498; > 100 µM (inactive) with CCRF-CEM; > 100 µM (inactive) in the assay on COLO 205; over 100 µM with HCT-15; > 100 µM (inactive) in the assay on HOP-92; > 100 µM (inactive) in the assay on HT-29. Moreover, the GI50 in the assay with K562, in the assay with KM12, in the assay on LOX IMVI, in the assay with M14, in the assay with NCI-H226 and in the assay on RXF 393 was > 100 µM (inactive) in each case. The GI50 in the assay on SF-268, with SK-OV-3, in the assay on SN12C and in the assay with SNB-19 was > 100 µM (inactive) in each case.

In the case of `CCCCNc1nc(C#N)c(N)s1`, the GI50 with COLO 205 is > 100 µM (inactive); in the assay with HCT-15 it was over 100 µM; with HOP-92, > 100 µM (inactive); with HT-29, > 100 µM (inactive); with K562, > 100 µM (inactive); in the assay on KM12, > 100 µM (inactive). Besides, the GI50 in the assay with LOX IMVI, in the assay with M14, with NCI-H226, in the assay on SF-268, in the assay with SK-MEL-28 and in the assay on SK-OV-3 was > 100 µM (inactive) in each case. Further, the GI50 in the assay on SN12C, with SNB-19 and with SR was > 100 µM (inactive) throughout.

For the compound `O=C(CSSCC(=O)OCCS(=O)(=O)Nc1ccc(Br)cc1)OCCS(=O)(=O)Nc1ccc(Br)cc1`, the GI50 is 11.8 µM (inactive) with A498; 7.66 µM (inactive) with CCRF-CEM; 11.6 µM (inactive) in the assay with COLO 205; 14.5 µM in the assay with HCT-15; 13.1 µM (inactive) in the assay with HOP-92; 4.1 µM (inactive) in the assay with HT-29. Also, the GI50 in the assay on K562 was 10.4 µM (inactive); in the assay on KM12 it was 13.3 µM (inactive); in the assay on LOX IMVI, 7.18 µM (inactive); with M14, 12.8 µM (inactive); with RXF 393, 3.23 µM (inactive); with SF-268, 13.9 µM (inactive). Also, the GI50 in the assay with SK-MEL-28 was 21.7 µM (inactive); in the assay with SK-OV-3, 18.9 µM (inactive); with SN12C, 18.7 µM (inactive); in the assay with SNB-19, 32.8 µM (inactive).

Consider `CCOC(=O)/C(C#N)=C\Sc1ccccc1`, for which the GI50 in the assay with CCRF-CEM is 7.83 µM (inactive); in the assay with COLO 205 it was 20.1 µM (inactive); in the assay on HOP-92, 37.2 µM (inactive); with HT-29, 26 µM (inactive); in the assay on K562 it was 18.3 µM (inactive); in the assay with KM12, 15.9 µM (inactive). Besides, the GI50 in the assay on LOX IMVI is 7.46 µM (inactive); in the assay with M14, 15.9 µM (inactive); with NCI-H226 it was 16.7 µM (inactive); in the assay with RXF 393, 16.8 µM (inactive); with SF-268 it was 3.73 µM (inactive); in the assay with SK-MEL-28, 14.7 µM (inactive). For the same compound, the GI50 with SK-OV-3 was 36.6 µM (inactive); in the assay with SN12C it was 14 µM (inactive); with SNB-19 it was 33.5 µM (inactive); in the assay on SR it was 4.71 µM (inactive).

As to `CCOC(=O)C(=Cc1cc(OC)ccc1OC)C(=O)OCC`, the GI50 is 14.4 µM (inactive) with A498; 2.95 µM (inactive) in the assay with CCRF-CEM; 4.88 µM (inactive) with COLO 205; 5.71 µM in the assay on HCT-15; 3.2 µM (inactive) with HOP-92; 3.85 µM (inactive) in the assay on HT-29. The GI50 with K562 is 3.42 µM (inactive); in the assay on KM12 it was 6.53 µM (inactive); in the assay with LOX IMVI, 3.83 µM (inactive); in the assay with M14, 11.6 µM (inactive); in the assay with NCI-H226, 10.6 µM (inactive); in the assay with RXF 393 it was 1.83 µM (inactive). Moreover, the GI50 with SF-268 is 5.36 µM (inactive); in the assay on SK-MEL-28, 4.71 µM (inactive); with SK-OV-3, 15.8 µM (inactive); in the assay with SN12C, 5.27 µM (inactive); with SNB-19, 11.9 µM (inactive).

On to `C1CC[N+]23CCCC[N+]2(C1)CCCC3` (stereo not given), for which the GI50 in the assay on A498 is > 100 µM (inactive); in the assay with CCRF-CEM it was > 100 µM (inactive); in the assay with COLO 205 it was > 100 µM (inactive); with HCT-15 it was over 100 µM; in the assay on HT-29 it was > 100 µM (inactive); in the assay with K562, > 100 µM (inactive). Further, the GI50 in the assay with M14, with NCI-H226, with SF-268, in the assay with SK-MEL-28, in the assay on SK-OV-3 and in the assay with SN12C was > 100 µM (inactive) each time. In addition, the GI50 in the assay with SNB-19 and with SR was > 100 µM (inactive) in each case.

Turning to `CN(CCO)c1nc2c(c(=O)[nH]1)CNCC2`, the GI50 in the assay with CCRF-CEM is > 100 µM (inactive); in the assay on COLO 205, > 100 µM (inactive); in the assay with HCT-15, over 100 µM; with HOP-92, > 100 µM (inactive); with HT-29, > 100 µM (inactive); in the assay on K562, > 100 µM (inactive). The GI50 in the assay on KM12, in the assay on LOX IMVI, in the assay with M14, in the assay with NCI-H226, with RXF 393 and in the assay on SF-268 was > 100 µM (inactive) in each case. Also, the GI50 in the assay with SK-MEL-28, in the assay on SK-OV-3, in the assay on SN12C, with SNB-19 and in the assay on SR was > 100 µM (inactive) in each case.

Turning to `NC(=O)C12C3C4C1C1C2C3C41C(N)=O` (stereo not given), the GI50 in the assay with A498 was > 100 µM (inactive); in the assay with CCRF-CEM, > 100 µM (inactive); with COLO 205 it was > 100 µM (inactive); with HCT-15, over 100 µM; with HOP-92, > 100 µM (inactive); in the assay with HT-29, > 100 µM (inactive). The GI50 in the assay with K562, in the assay with KM12, with LOX IMVI, in the assay with M14, in the assay on NCI-H226 and in the assay with RXF 393 was > 100 µM (inactive) each time. The GI50 in the assay with SF-268, in the assay on SK-MEL-28, in the assay with SK-OV-3, in the assay with SN12C and in the assay on SNB-19 was > 100 µM (inactive) in each case.
